Results on 12 compounds are retold here after PMC11597386, “Pharmacokinetics and Quantitative Structure–Pharmacokinetics Relationship Study of Xanthine Derivatives with Antidepressant, Anti-Inflammatory, and Analgesic Activity in Rats” (Pharmaceutics, 2024).

Read-outs that look alike come from different tables or passages of the source.

Data set [1] is described as follows: Pharmacokinetics after single intravenous administration to cannulated rats, noncompartmental analysis. The following applies: for clearance / Vd / half-life: male, Wistar, rat, plasma, iv; for clearance: read-out: CL, total body clearance; for Vd: read-out: Vz, volume of distribution based on the terminal phase; for half-life: read-out: t0.5λz, terminal half-life. The class given is in vivo, rat. As to the method:
Male Wistar rats, 15–17 weeks of age and weighing between 250 and 350 g, purchased from the Animal Facility of the Jagiellonian University Medical College, Krakow, Poland, were used in all experiments. They were kept under conditions of constant temperature (21–25 °C) and relative humidity of approximately 40–65% with a standard light/dark cycle. Animals were housed in stainless steel cages with suspended wire mesh floors (maximum of 5 rats per cage) with free access to distilled water and the commercial rodent chaw. All study protocols were approved by the First Local Ethical Committee on Animal Testing of the Jagiellonian University (licenses no. Zi/604/2011 and 13/2014).
Three days prior to the experiment, the rat’s jugular vein was cannulated (SAI Infusion Technologies, Lake Villa, IL, USA), allowing for multiple blood samples from a single animal. […] The doses were selected based on the results of our previous studies on rats and mice. Four rats per compound were used. Multiple blood samples were taken over a period of at least 120 min into heparinized tubes; plasma was separated by centrifugation (Universal 32, Hettich, Germany) at 1400× g for 20 min and stored at −80 °C until analysis.
(§1) For the purpose of the quantitative analysis of free and total plasma concentrations of studied compounds, different analytical methods were developed. Theo was extracted from the biological samples by liquid–liquid extraction using dichloromethane. The mixture consisting of 100 μL of rat plasma or ultrafiltrate, 10 μL of theobromine (25 μg/mL in methanol) used as IS, 20 μL of 0.1 M HCl, and 5 mL of dichloromethane was agitated on a shaker (VXR Vibrax, IKA, Staufen, Germany) and subsequently centrifuged for 20 min at 3000 rpm (Universal 32, Hettich, Germany). A clear supernatant (4 mL) was transferred into a glass conical tube and evaporated to dryness under a stream of nitrogen in a water bath at 37 °C. The residue was then reconstituted in 100 μL of methanol, vortexed for 30 s, and the solution was transferred into the automatic sampler vials. Finally, 10–50 μL aliquot was injected into the HPLC/DAD system (LaChrome Elite, Merck-Hitachi, Germany). Chromatographic separation was performed on the LiChrospher 100 RP-18 (250 × 4 mm i.d., 5 µm particle size) analytical column coupled with a LiChroCART® guard column (4.0 × 4.0 mm, 5 μm) from Merck (Darmstadt, Germany). The mobile phase consisted of a mixture of methanol and deionized water (20:80, v/v) and was pumped through the system at a flow rate of 1.0 mL/min. The peaks were detected by a DAD detector at the wavelength of 271 nm. […] The analytical run lasted 20 min.
Plasma or ultrafiltrate samples containing PTX or (R)-LSF were placed in a glass tube and spiked with 10 µL of the IS solution (100 µg/mL temazepam in methanol). Samples were then acidified with 20 µL of 0.1 M hydrochloric acid, and 3 mL of dichloromethane was added to each sample. Tubes were shaken for 20 min and subsequently centrifuged (2000× g, 20 min). Then, 2.5 mL of dichloromethane was transferred to a clean glass conical tube and evaporated under a gentle stream of nitrogen in a water bath at 37 °C. The dried residue was dissolved in 100 µL of the mobile phase, and 50 µL of this solution was injected into the HPLC column. Analysis was performed on a 250 × 4.6 mm Chiralpak AD column (Daicel Corp., Tokyo, Japan) with 10 μm particle size, protected with a 20 × 4.6 mm LC-Si guard-column (Supelco Inc., Bellefonte, PA, USA). Mobile phase consisted of hexane: 2-propanol, 84:16 (v/v), and 0.01% diethylamine and was pumped at a flow rate of 1.4 mL/min. Calibration curves were linear in a range of 0.1–50 mg/L. The retention times of IS, PTX, and (R)-LSF were 7, 16, and 20 min, respectively. […]

Data set [2] is described as follows: Plasma protein binding / unbound fraction by ultrafiltration of plasma collected 15 min after i.v. administration. The following applies: male, Wistar, rat, intravenous. The class given is in vitro ADME. Here is the method: The free concentrations of studied compounds in plasma were determined and unbound fraction (fu) was calculated in all available plasma samples obtained 15 min after the intravenous administration. At this time point, 500–600 µL of blood was collected and plasma samples obtained were divided into two portions: 150–200 µL for measurement of free compound concentrations and 100 µL for measurement of the total drug concentrations. Plasma proteins were separated by an ultrafiltration method using Centrifree® devices with Ultracel PL regenerated cellulose membrane, 30,000 NMWL (Merck, Germany). For direct measurement of the free concentrations of compounds, each plasma sample was transferred to a sample reservoir of the disposable filter unit and centrifuged (1000× g) for 20 min at 25 °C. An aliquot of the ultrafiltrate was directly subjected to analysis. Free and total compound concentrations were measured by a high-performance liquid chromatography method with diode-array detection (HPLC-DAD) or liquid chromatography with tandem mass spectrometry (LC-MS/MS).
as §1, with “Theo was extracted from the biological samples by liquid–liquid extraction using dichloromethane.” left out
Plasma or ultrafiltrate samples containing PTX or (R)-LSF were placed in a glass tube and spiked with 10 µL of the IS solution (100 µg/mL temazepam in methanol). Samples were then acidified with 20 µL of 0.1 M hydrochloric acid, and 3 mL of dichloromethane was added to each sample. Tubes were shaken for 20 min and subsequently centrifuged (2000× g, 20 min). Then, 2.5 mL of dichloromethane was transferred to a clean glass conical tube and evaporated under a gentle stream of nitrogen in a water bath at 37 °C. The dried residue was dissolved in 100 µL of the mobile phase, and 50 µL of this solution was injected into the HPLC column. Analysis was performed on a 250 × 4.6 mm Chiralpak AD column (Daicel Corp., Tokyo, Japan) with 10 μm particle size, protected with a 20 × 4.6 mm LC-Si guard-column (Supelco Inc., Bellefonte, PA, USA). Mobile phase consisted of hexane: 2-propanol, 84:16 (v/v), and 0.01% diethylamine and was pumped at a flow rate of 1.4 mL/min. […] HPLC system (Thermo Separation Product, San Jose, CA, USA) consisted of a UV/VIS spectrophotometric detector (Spectra 100) with absorbance set at 275 nm, P100 pump, and Rheodyne 7125 manual injector (Alltech Associates, Deerfield, IL, USA) with a 50 µL sample loop. Chromatograms were recorded and integrated with an SP 4400 ChromJet integrator (San Jose, CA, USA).

Data set [3] relates to plasma proteins. Also on record: method as in earlier work. The following applies: cited from earlier work.
[4] abbreviates: rat plasma 15 min after i.v. administration, ultrafiltration, geometric mean, n = 4, read-out: fb, fraction bound to plasma proteins (converted).
Setting [5] is: rat plasma 15 min after i.v. administration, ultrafiltration, geometric mean, n = 4, read-out: fu, fraction unbound in plasma.
Setting [6] is: rat plasma proteins, read-out: percent of plasma protein binding (converted).
[7] abbreviates: male Wistar rats, single i.v. dose (50 mg/kg Theo; 40 mg/kg PTX, LSF; 5 mg/kg GR-1 to GR-5; 2 mg/kg GR-6 to GR-8), geometric mean, n = 4.

Take `COc1ccccc1N1CCN(CCCCCn2cnc3c2c(=O)n(C)c(=O)n3C)CC1` [GR-3]: in data set [1], the clearance came to 23.6 mL/min/kg, the Vd was 1.7 L/kg and the half-life is 49.8 min. Moreover, in data set [2] (setting [4]), the fraction unbound at 15 min was 0.28. Also, the fraction unbound at 15 min in data set [2] (setting [5]) was determined as 0.28. In addition, the fraction unbound at 15 min in data set [2] (setting [6]) was 0.28 to 0.29.

Regarding `COc1nc2c(c(=O)n(C)c(=O)n2C)n1CCCC(=O)NCc1ccccc1` [GR-7], the “Vss, volume of distribution at steady-state” value (from here on “Vss, volume of distribution”) in data set [1] (setting [7]) came to 0.78 L/kg. Further, in data set [1], the clearance came out at 43.2 mL/min/kg, the Vd was determined as 0.95 L/kg and the half-life came out at 15.2 min. In data set [2] (setting [4]), the fraction unbound at 15 min is 0.13. For the same compound, the fraction unbound at 15 min in data set [2] (setting [5]) turned out to be 0.13.

As to `Cn1c(=O)c2c(ncn2CCCCN2CCN(c3cccc(Cl)c3)CC2)n(C)c1=O` [GR-1], in data set [1], the clearance was 33.1 mL/min/kg, the Vd is 2.17 L/kg and the half-life stood at 45.4 min. Further, the fraction unbound at 15 min in data set [2] (setting [4]) was 0.08. Further, in data set [2] (setting [5]), the fraction unbound at 15 min amounted to 0.08.

`COC(=O)Cn1c(=O)[nH]c2c1c(=O)n(C)c(=O)n2C` [GR-8]: the “Vss, volume of distribution” value in data set [1] (setting [7]) was found to be 0.33 L/kg. Also, in data set [1], the clearance was found to be 68.1 mL/min/kg, the Vd was 0.66 L/kg and the half-life is 6.75 min. The fraction unbound at 15 min in data set [2] (setting [4]) was 0.14. Moreover, in data set [2] (setting [5]), the fraction unbound at 15 min was 0.14.

As to `C[C@@H](O)CCCCn1c(=O)c2c(ncn2C)n(C)c1=O` [(R)-LSF, R-lisofylline, reference compound], in data set [1] (setting [7]), the “Vss, volume of distribution” value is recorded as 0.78 L/kg. For the same compound, in data set [1], the clearance came to 22.1 mL/min/kg, the Vd was 0.82 L/kg and the half-life came out at 25.7 min. Besides, the fraction unbound at 15 min in data set [2] (setting [4]) is 0.79. In data set [2] (setting [5]), the fraction unbound at 15 min came out at 0.79. In addition, in data set [2] (setting [6]), the fraction unbound at 15 min was 0.79.

Take `CC(=O)CCCCn1c(=O)c2c(ncn2C)n(C)c1=O` [PTX, pentoxifylline, reference compound]: in data set [1] (setting [7]), the “Vss, volume of distribution” value turned out to be 0.92 L/kg. For the same compound, in data set [1], the clearance came to 55.5 mL/min/kg, the Vd came out at 1.18 L/kg and the half-life was found to be 14.7 min. Moreover, the fraction unbound at 15 min in data set [2] (setting [4]) is 0.19. In addition, in data set [2] (setting [5]), the fraction unbound at 15 min is 0.19.

For the compound `COc1nc2c(c(=O)n(C)c(=O)n2C)n1CCCC(=O)O` [GR-6], in data set [1] (setting [7]), the “Vss, volume of distribution” value is 0.49 L/kg and the “Vz, volume of distribution based on the terminal phase” value was 1.06 L/kg. Further, in data set [1], the clearance was 43.1 mL/min/kg and the half-life is 17.1 min. Also, the fraction unbound at 15 min in data set [2] (setting [4]) is 0.31. Moreover, the fraction unbound at 15 min in data set [2] (setting [5]) came to 0.31.

Regarding `CCOc1nc2c(c(=O)n(C)c(=O)n2C)n1CCCC(=O)NN` [GR-5], the “Vss, volume of distribution” value in data set [1] (setting [7]) is 0.78 L/kg. Further, in data set [1], the clearance was determined as 25.3 mL/min/kg, the Vd was 1.43 L/kg and the half-life was 39 min. For the same compound, the fraction unbound at 15 min in data set [2] (setting [4]) was 0.89. Also, the fraction unbound at 15 min in data set [2] (setting [5]) was 0.89. Besides, in data set [2] (setting [6]), the fraction unbound at 15 min was 0.89.

Regarding `Cn1c(=O)c2c(ncn2CC(O)CO)n(C)c1=O` (centres unmarked) [diprophyllinum], the “percent of plasma protein binding” value in data set [3] was 84–90%.

With `Cn1c(=O)c2c(ncn2CCCCCN2CCN(c3cccc(Cl)c3)CC2)n(C)c1=O` [GR-4], in data set [1], the clearance turned out to be 26.4 mL/min/kg, the Vd came to 1.9 L/kg and the half-life came to 50 min. Further, the fraction unbound at 15 min in data set [2] (setting [4]) is 0.06. Also, the fraction unbound at 15 min in data set [2] (setting [5]) was determined as 0.06.

With `Cn1c(=O)c2[nH]cnc2n(C)c1=O` [Theo, theophylline, reference compound], in data set [1] (setting [7]), the “Vss, volume of distribution” value is reported as 0.72 L/kg. In data set [1], the clearance was determined as 2.14 mL/min/kg, the Vd came out at 0.73 L/kg and the half-life was found to be 236 min.

For `Cn1c(=O)c2c(ncn2CCCCCN2CCN(c3ccccc3)CC2)n(C)c1=O` [GR-2], in data set [1], the clearance was found to be 29.6 mL/min/kg, the Vd is 1.52 L/kg and the half-life worked out at 35.6 min. Further, the fraction unbound at 15 min in data set [2] (setting [4]) was 0.29. Further, in data set [2] (setting [5]), the fraction unbound at 15 min was 0.29. Moreover, in data set [2] (setting [6]), the fraction unbound at 15 min was 0.28 to 0.29.
